In patent US11795404B2, “Composition for removing sulfur-containing compounds” (KURARAY CO., LTD., priority 2018, dated 2023) one finds Removal rate and pKa data, which are given here for 4 compounds.

Series [1] is described as follows: Sulfur-containing compound removal reaction, BuSH in liquid hydrocarbon (GC-SCD). Particulars: BuSH 50 μL (1000 ppm by volume) in kerosene 50 mL; aldehyde 250 μL; room temperature; reaction time 1 day. As for the experimental part: In a 100 mL three-neck flask, 50 mL of kerosene was put and 50 μL (1000 ppm by volume, 0.46 mmol) of BuSH was added thereto to obtain a kerosene solution containing a sulfur-containing compound.
Next, 250 μL (2.59 mmol) of SAL and 250 μL (1.71 mmol) of DBU were added to the kerosene solution, and the solution was stirred at room temperature (20° C.±5° C., the same applies hereinafter) and at 800 rpm to perform a sulfur-containing compound removal reaction.
After 1-day reaction, the mercaptan concentration of the liquid phase in the three-neck flask was measured.
The mercaptan concentration of the liquid phase was measured using a calibration curve method by gas chromatography. The gas chromatography was performed under the following conditions.
Analyzer: GC-SCD (manufactured by Agilent Technologies Japan, Ltd.)
Detector: sulfur chemiluminescence detector (SCD)
Column: DB-sulfur SCD (length: 60 m, thickness: 4.2 μm, inner diameter: 0.32 mm) (manufactured by Agilent Technologies Japan, Ltd.)
Analytical conditions: inject. temp. 250° C., detect. temp. 250° C.
Temperature rise condition: 35° C. (kept for 3 minutes) (raised at 10° C./min)→250° C. (kept for 15 minutes)
Internal Standard Substance: diphenyl sulfide
A sulfur-containing compound removal reaction was performed in the same manner as in Example 3 except that crude oil was used in place of kerosene.

For series [2] the following is noted: conjugate acid in water at 25° C.; cited from earlier work.

A value given as a limit tells only on which side of the number the result lay.

For the compound `C=CC=O` [Comparative Example 4, Acrolein], the Removal rate in series [1] was 15%.

Turning to `C1CCC2=NCCCN2CC1` [DBU, 1,8-Diazabicyclo[5.4.0]-7-undecene], the pKa (in general, the negative logarithm of the acid dissociation constant) in series [2] was 11.5.

Consider `CC(C)=CC=O` [Comparative Example 1, Senecioaldehyde], for which the Removal rate in series [1] is below 10%.

For the compound `CN(C)CCN(C)CCN(C)C` [PMDETA, N,N,N′,N″,N″-Pentamethydiethylenetriamine], the pKa in series [2] is 9.1.
